Assay results as given in ChEMBL document CHEMBL1909528, “Synthesis and 2D QSAR of O-sulphonated β-aminols derivatives as novel antifungal and antibacterial agents” (Bioorg Med Chem Lett, 2011).

What was measured:
Sporothrix schenckii = assay: Antifungal activity against Sporothrix schenckii by broth microdilution method; type: functional, organism-based
Aspergillus fumigatus = assay: Antifungal activity against Aspergillus fumigatus by broth microdilution method; type: functional
[1] = tested on: Trichophyton mentagrophytes; assay: Antifungal activity against Trichophyton mentagrophytes by broth microdilution method; type: functional, organism-based
Cryptococcus neoformans = assay: Antifungal activity against Cryptococcus neoformans by broth microdilution method; type: functional
Candida parapsilosis = assay: Antifungal activity against Candida parapsilosis ATCC 22019 by broth microdilution method; type: functional; settings: Lodderomyces parapsilosis
Candida albicans = assay: Antifungal activity against Candida albicans by broth microdilution method; type: functional, organism-based
Staphylococcus aureus = assay: Antibacterial activity against Staphylococcus aureus ATCC 25923 by broth microdilution method; type: functional, organism-based
Escherichia coli = assay: Antibacterial activity against Escherichia coli ATCC 9637 by broth microdilution method; type: functional, organism-based

| SMILES | MIC (Sporothrix schenckii) [µM] | IC50 (Sporothrix schenckii; read-out: IC50) [µM] | IC50 (Sporothrix schenckii; read-out: pIC50 (converted)) [µM] | MIC (Aspergillus fumigatus) [µM] | MIC [1] [µM] | IC50 ([1]; read-out: IC50) [µM] | IC50 ([1]; read-out: pIC50 (converted)) [µM] | MIC (Cryptococcus neoformans) [µM] | MIC (Candida parapsilosis) [µM] | MIC (Candida albicans) [µM] | IC50 (Candida albicans; read-out: IC50) [µM] | IC50 (Candida albicans; read-out: pIC50 (converted)) [µM] | MIC (Staphylococcus aureus) [µM] | IC50 (Staphylococcus aureus; read-out: IC50) [µM] | IC50 (Staphylococcus aureus; read-out: pIC50 (converted)) [µM] | MIC (Escherichia coli) [µM] | IC50 (Escherichia coli; read-out: IC50) [µM] | IC50 (Escherichia coli; read-out: pIC50 (converted)) [µM] |
| --- | --- | --- | --- | --- | --- | --- | --- | --- | --- | --- | --- | --- | --- | --- | --- | --- | --- | --- |
| O=S(=O)(OC(CNCc1ccccc1)c1ccccc1)c1cccc(Cl)c1Cl (stereo not drawn) | < 50 | 15.6 | 15.6 | > 50 | < 50 | 5.89 | 5.89 | > 50 | > 50 | – | – | – | – | – | – | – | – | – |
| O=[N+]([O-])c1cccc(S(=O)(=O)OC(CNCc2ccccc2)c2ccccc2)c1 (stereo not drawn) | – | – | – | > 50 | – | – | – | > 50 | > 50 | < 50 | 30.8 | 30.8 | < 50 | 0.842 | 1.19 | – | – | – |
| O=S(=O)(OC(CNCc1ccccc1)c1ccccc1)c1c(Cl)cccc1Cl (stereo not drawn) | < 50 | 12 | 12 | > 50 | < 50 | 44.7 | 44.8 | > 50 | > 50 | < 50 | 18 | 18 | < 50 | 11.6 | 11.6 | – | – | – |
| O=S(=O)(OC(CNCc1ccccc1)c1ccccc1)c1ccc(F)cc1 (stereo not drawn) | – | – | – | > 50 | < 50 | 10.2 | 10.2 | > 50 | > 50 | < 50 | 41.9 | 41.9 | < 50 | 22.6 | 22.6 | – | – | – |
| CC(C)(C)OC(=O)N(Cc1ccccc1)CC(OS(=O)(=O)c1cccc(Cl)c1Cl)c1ccccc1 (stereo not drawn) | < 50 | 26.7 | 26.7 | > 50 | < 50 | 0.33 | – | > 50 | > 50 | – | – | – | – | – | – | – | – | – |
| CC(C)(C)OC(=O)N(Cc1ccccc1)CC(OS(=O)(=O)c1cccc([N+](=O)[O-])c1)c1ccccc1 (stereo not drawn) | < 50 | 5.95 | 5.95 | > 50 | – | – | – | > 50 | > 50 | – | – | – | – | – | – | – | – | – |
| CC(C)(C)OC(=O)N(Cc1ccccc1)CC(OS(=O)(=O)c1c(Cl)cccc1Cl)c1ccccc1 (stereo not drawn) | < 50 | 11.4 | 11.4 | > 50 | – | – | – | > 50 | > 50 | – | – | – | – | – | – | < 50 | 3.13 | 3.13 |
| CC(C)(C)OC(=O)N(Cc1ccccc1)CC(OS(=O)(=O)c1ccc(F)cc1)c1ccccc1 (stereo not drawn) | < 50 | 8.66 | 8.66 | > 50 | < 50 | 0.46 | – | > 50 | > 50 | < 50 | 1.52 | 1.52 | – | – | – | < 50 | 0.83 | 1.2 |
| Cc1cc(C)cc(S(=O)(=O)OC(CN(Cc2ccccc2)C(=O)OC(C)(C)C)c2ccccc2)c1 (stereo not drawn) | < 50 | 31.2 | 31.2 | > 50 | < 50 | 12.6 | 12.6 | > 50 | > 50 | < 50 | 41.6 | 41.6 | – | – | – | – | – | – |
| CC(C)(C)OC(=O)N(Cc1ccccc1)CC(OS(=O)(=O)c1ccc([N+](=O)[O-])cc1)c1ccccc1 (stereo not drawn) | – | – | – | > 50 | < 50 | 5.73 | 5.73 | > 50 | > 50 | – | – | – | – | – | – | < 50 | 9.02 | 9.02 |
| CC(C)(C)OC(=O)N(Cc1ccccc1)CC(OS(=O)(=O)c1ccc(C#N)cc1)c1ccccc1 (stereo not drawn) | < 50 | 32.7 | 32.7 | > 50 | < 50 | 9.48 | 9.48 | > 50 | > 50 | < 50 | 8.59 | 8.59 | – | – | – | < 50 | 18.5 | 18.5 |
| CC(C)(C)OC(=O)N(Cc1ccccc1)CC(OS(=O)(=O)c1cccc2ccccc12)c1ccccc1 (stereo not drawn) | – | – | – | > 50 | < 50 | 5.48 | 5.48 | > 50 | > 50 | – | – | – | – | – | – | < 50 | 1.26 | 1.26 |
| CC(C)(C)OC(=O)N(Cc1ccccc1)CC(OS(=O)(=O)c1ccccc1C(F)(F)F)c1ccccc1 (stereo not drawn) | < 50 | 28.4 | 28.4 | > 50 | < 50 | 24.4 | 24.4 | > 50 | > 50 | < 50 | 6.44 | 6.44 | – | – | – | – | – | – |
| CC(C)(C)OC(=O)N(Cc1ccccc1)CC(OS(=O)(=O)c1ccc2ccccc2c1)c1ccccc1 (stereo not drawn) | – | – | – | > 50 | < 50 | 2.12 | 2.12 | > 50 | > 50 | – | – | – | – | – | – | < 50 | 3.54 | 3.54 |
| Cc1ccc(S(=O)(=O)OC(CN(Cc2ccccc2)C(=O)OC(C)(C)C)c2ccccc2)cc1 (stereo not drawn) | < 50 | 32.7 | 32.7 | > 50 | < 50 | 11.7 | 11.7 | > 50 | > 50 | < 50 | 4.07 | 4.07 | – | – | – | < 50 | 7.5 | 7.5 |
